Reference: ChEMBL document CHEMBL1201862, “PubChem BioAssay data set” (2004)
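Step 1: Grow cells in 96-well plates. Step 2: Expose to compound for 48 hours at 5 concentrations. Step 3: Interpolate endpoints linearly; if unreached, use highest concentration. GI50 = concentration required for 50% inhibition of growth.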 Activity calls are given as the source filed them. No stated cut-off is given here; in the data, active = GI50 up to about 1.1 µM and inactive = higher.

Assays:
Assay in all cases: DTP human tumour cell line panel, 48 h
[1] = test system: LOX IMVI
[2] = test system: MDA-MB-231
[3] = test system: SF-539
[4] = test system: HT-29
[5] = test system: A549
[6] = test system: TK-10
[7] = test system: RXF 393
[8] = test system: HCT-15
[9] = test system: OVCAR-8
[10] = test system: SW-620
[11] = test system: NCI/ADR-RES
[12] = test system: SN12C
[13] = test system: ACHN
[14] = test system: CCRF-CEM
[15] = test system: Hs-578T
[16] = test system: MOLT-4
[17] = test system: 786-0
[18] = test system: OVCAR-4
[19] = test system: NCI-H23
[20] = test system: NCI-H460
[21] = test system: EKVX
[22] = test system: A498
[23] = test system: SK-MEL-28
[24] = test system: HCT-116
[25] = test system: UO-31
[26] = test system: SF-268
[27] = test system: MCF7
[28] = test system: U-251
[29] = test system: SNB-19
[30] = test system: DU-145
[31] = test system: COLO 205
[32] = test system: MDA-MB-435
[33] = test system: SR
[34] = test system: BT-549
[35] = test system: NCI-H226
[36] = test system: KM12
[37] = test system: OVCAR-3
[38] = test system: M14
[39] = test system: SF-295
[40] = test system: IGROV-1
[41] = test system: T47D
[42] = test system: SK-OV-3
[43] = test system: SNB-75
[44] = test system: SK-MEL-5
[45] = test system: PC-3
[46] = test system: MDA-N
[47] = test system: HL-60
[48] = test system: OVCAR-5
[49] = test system: UACC-257
[50] = test system: RPMI-8226
[51] = test system: UACC-62
[52] = test system: K562
[53] = test system: Malme-3M
[54] = test system: HOP-62
[55] = test system: HOP-92
[56] = test system: SK-MEL-2

CC(C)CCCC(C)[C@H]1CCC2[C@@H]3CCC4Cc5nc6c(nc5C[C@]4(C)C3CC[C@@]21C)CC1CC[C@@H]2C(CC[C@@]3(C)C2CC[C@@H]3C(C)CCCC(C)C)[C@@]1(C)C6 (stereo partly specified)
GI50 [1]: > 100 µM (inactive)
GI50 [2]: > 100 µM (inactive)
GI50 [3]: > 100 µM (inactive)
GI50 [4]: > 100 µM (inactive)
GI50 [5]: > 100 µM (inactive)
GI50 [6]: > 100 µM (inactive)
GI50 [7]: > 100 µM (inactive)
GI50 [8]: > 100 µM
GI50 [9]: > 100 µM (inactive)
GI50 [10]: > 100 µM (inactive)
GI50 [11]: > 100 µM (inactive)
GI50 [12]: > 100 µM (inactive)
GI50 [13]: > 100 µM (inactive)
GI50 [14]: > 100 µM (inactive)
GI50 [15]: > 100 µM (inactive)
GI50 [16]: > 100 µM (inactive)
GI50 [17]: > 100 µM (inactive)
GI50 [18]: > 100 µM (inactive)
GI50 [19]: > 100 µM (inactive)
GI50 [20]: > 100 µM (inactive)
GI50 [21]: > 100 µM (inactive)
GI50 [22]: > 100 µM (inactive)
GI50 [23]: > 100 µM (inactive)
GI50 [24]: > 100 µM (inactive)
GI50 [25]: > 100 µM (inactive)
GI50 [26]: > 100 µM (inactive)
GI50 [27]: > 100 µM (inactive)
GI50 [28]: > 100 µM (inactive)
GI50 [29]: > 100 µM (inactive)
GI50 [30]: > 100 µM (inactive)
GI50 [31]: > 100 µM (inactive)
GI50 [32]: > 100 µM (inactive)
GI50 [33]: > 100 µM (inactive)
GI50 [34]: > 100 µM (inactive)
GI50 [35]: > 100 µM (inactive)
GI50 [36]: > 100 µM (inactive)
GI50 [37]: > 100 µM (inactive)
GI50 [38]: > 100 µM (inactive)
GI50 [39]: > 100 µM (inactive)
GI50 [40]: > 100 µM (inactive)
GI50 [41]: > 100 µM (inactive)
GI50 [42]: > 100 µM (inactive)
GI50 [43]: 38.8 µM (inactive)
GI50 [44]: > 100 µM (inactive)
GI50 [45]: > 100 µM (inactive)
GI50 [46]: > 100 µM (inactive)
GI50 [47]: > 100 µM (inactive)
GI50 [48]: > 100 µM (inactive)
GI50 [49]: > 100 µM (inactive)
GI50 [50]: > 100 µM (inactive)
GI50 [51]: > 100 µM (inactive)
GI50 [52]: > 100 µM (inactive)
GI50 [53]: > 100 µM (inactive)
GI50 [54]: > 100 µM (inactive)
GI50 [55]: > 100 µM (inactive)
GI50 [56]: > 100 µM (inactive)
